In article PMC12010937, “Evaluation of FXR Activity in Pollutants Identified in Sewage Sludge and Subsequent in Vitro and in Vivo Characterization of Metabolic Effects of Triphenyl Phosphate” (Environmental Health Perspectives, 2025):
“And” between values parts separate entries of the source, which are not always exact repeats. Identical values can stand only once.

Legend:
[1] = Body weight during exposure; type: in vivo, C57BL/6N mice; conditions: for Relative body weight / Body weight: individual mice
Description: (§1) Male C57BL/6N mice (8 wk of age) were purchased from Beijing Vital River Laboratory Inc. and acclimated to the environment for 2 wk before they were used for experiments. The environment was maintained at 22°C, in a 12-h light/dark cycle with 50%–60% relative humidity and fed standard chow diets. Because the male mice are more sensitive to metabolic disease than female mice and the estrous cycle of female mice may induce variability to the metabolic phenotypes,[50] only male mice were used in this study. Animals were randomly assigned to control or TPHP treatment groups (five mice per group). Mice were exposed to corn oil (control) purchased from Sigma-Aldrich (C8267) or TPHP (dissolved in corn oil) at 10mg/kg or 50mg/kg body weight (BW) by daily oral gavage for 35 d. The administered volume was 5mL/kg BW. The TPHP corn oil solutions for administration were prepared by dissolving the TPHP in corn oil, and the solutions were stored at −20°C and freshly prepared each week. BW was measured every other day during the dosing period. At the end of experiments, the mice were anesthetized with isoflurane, then blood was collected from the retro-orbital sinus via orbital puncture, and then the mice were euthanized by cervical dislocation. The liver was isolated, weighted, and divided into three fractions: one fraction was fixed with 4% neutral-buffered formalin for Oil Red staining; another fraction was frozen in liquid nitrogen and stored at −80°C for the BA targeted analysis, lipidomic analysis, and qPCR analysis; the remaining fraction was embedded with 3% carboxymethylcellulose (CMC) for MSI analysis. The ileum was also isolated, weighted, and stored at −80°C for the BA targeted analysis and qRT-PCR analysis. Cecal contents were collected from the cecum of mice for the 16S rRNA gene sequencing analysis. Animal study protocols were approved by the Animal Care and Use Committee of Peking University (approval number: Urban-WanY-1).

PPARγ = system: PPARγ; parameters: method as in PMID 34340181; conditions: in vitro assays and in silico molecular docking; cited from earlier work
[2] = biological target: T1, human FXR-LBD (GST-FXR-LBD) (Homo sapiens, UniProt Q96RI1); test: HTRF coactivator recruitment assay, antagonist mode (in the presence of 50 μM CDCA); type: biochemical
T1 construct: the human FXR-LBD (residues 234–472) was expressed as a GST fusion protein GST-FXR-LBD; made in house; host or cells: E. coli BL21(DE3)
T1 sequence (Q96RI1 234-472 isoform Q96RI1-2): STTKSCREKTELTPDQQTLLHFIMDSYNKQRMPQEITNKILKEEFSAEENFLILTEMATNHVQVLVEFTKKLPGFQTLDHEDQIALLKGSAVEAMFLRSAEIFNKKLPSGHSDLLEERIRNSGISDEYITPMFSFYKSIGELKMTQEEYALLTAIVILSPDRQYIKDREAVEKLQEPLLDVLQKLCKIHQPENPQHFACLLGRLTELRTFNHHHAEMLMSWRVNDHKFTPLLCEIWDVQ

C57BL/6N mice = test: Hepatic triglyceride (TG enzymatic assay kit); type: in vivo; conditions: for Hepatic TG: individual mice
Description: as §1, with “Cecal contents were collected from the cecum of mice for the 16S rRNA gene sequencing analysis. Animal study protocols were approved by the Animal Care and Use Committee of Peking University (approval number: Urban-WanY-1).” left out
The TG level in the liver was determined using a triglyceride enzymatic assay kit (Applygen). […] The total BA level in the liver was determined using a Total Bile Acid (TBA) Colorimetric Assay Kit (Elabscience). […] Both the TG and TBA results were normalized by the protein concentration determined by bicinchoninic acid (BCA) method using a BCA kit (Applygen).

[3] = read-out: Relative antagonist activity (%)

O=P(Oc1ccccc1)(Oc1ccccc1)Oc1ccccc1 [TPHP, triphenyl phosphate]
Body weight vs control group (in words) ([1]; TPHP-L and TPHP-H groups, last week of 35 d exposure): significantly high BW
Relative body weight ([1]; day0, TPHP-H group): 100%
Relative body weight ([1]; day0, TPHP-L group): 100%
Relative body weight ([1]; day2, TPHP-H group): 100.00% and 95.33% and 100.77% and 93.99% and 94.87%
Relative body weight ([1]; day2, TPHP-L group): 100.70% and 96.31% and 97.06% and 97.18% and 97.32%
Relative body weight ([1]; day4, TPHP-H group): 97.19% and 93.33% and 101.54% and 92.93% and 92.67%
Relative body weight ([1]; day4, TPHP-L group): 97.89% and 93.62% and 95.96% and 97.58% and 94.25%
Relative body weight ([1]; day6, TPHP-H group): 97.59% and 92.00% and 101.92% and 90.46% and 91.58%
Relative body weight ([1]; day6, TPHP-L group): 98.24% and 94.30% and 94.12% and 97.18% and 94.25%
Relative body weight ([1]; day8, TPHP-H group): 98.39% and 93.00% and 103.85% and 92.23% and 93.41%
Relative body weight ([1]; day8, TPHP-L group): 98.59% and 94.30% and 95.59% and 96.37% and 95.40%
Relative body weight ([1]; day10, TPHP-H group): 98.39% and 92.67% (2×) and 103.85% and 90.46%
Relative body weight ([1]; day10, TPHP-L group): 98.24% and 94.30% and 95.59% and 95.97% and 94.25%
Body weight ([1]; day12, TPHP-H group): 24.8 g and 28.9 g and 27.4 g and 26.1 g (2×)
Relative body weight ([1]; day12, TPHP-H group): 99.60% and 96.33% and 105.38% and 92.23% and 95.60%
Body weight ([1]; day12, TPHP-L group): 28.0 g and 28.2 g and 26.3 g and 24.2 g and 24.9 g
Relative body weight ([1]; day12, TPHP-L group): 98.59% and 94.63% and 96.69% and 97.58% and 95.40%
Body weight ([1]; day14, TPHP-H group): 24.9 g and 29.3 g and 27.7 g and 25.9 g and 26.3 g
Relative body weight ([1]; day14, TPHP-H group): 100.00% and 97.67% and 106.54% and 91.52% and 96.34%
Body weight ([1]; day14, TPHP-L group): 28.7 g and 28.5 g and 26.4 g and 23.8 g and 25.1 g
Relative body weight ([1]; day14, TPHP-L group): 101.06% and 95.64% and 97.06% and 95.97% and 96.17%
Body weight ([1]; day16, TPHP-H group): 25.2 g and 29.6 g and 28.2 g and 26.6 g and 26.7 g
Relative body weight ([1]; day16, TPHP-H group): 101.20% and 98.67% and 108.46% and 93.99% and 97.80%
Body weight ([1]; day16, TPHP-L group): 28.9 g (2×) and 27.2 g and 24.0 g and 25.4 g
Relative body weight ([1]; day16, TPHP-L group): 101.76% and 96.98% and 100.00% and 96.77% and 97.32%
Body weight ([1]; day18, TPHP-H group): 25.6 g and 30.6 g and 28.3 g and 26.9 g and 27.4 g
Relative body weight ([1]; day18, TPHP-H group): 102.81% and 102.00% and 108.85% and 95.05% and 100.37%
Body weight ([1]; day18, TPHP-L group): 29.0 g and 29.3 g and 27.4 g and 24.4 g and 25.6 g
Relative body weight ([1]; day18, TPHP-L group): 102.11% and 98.32% and 100.74% and 98.39% and 98.08%
Body weight ([1]; day20, TPHP-H group): 25.6 g and 30.4 g and 28.2 g and 27.6 g (2×)
Body weight ([1]; day20, TPHP-L group): 29.6 g and 30.1 g and 27.7 g and 25.0 g and 26.0 g
Body weight ([1]; day22, TPHP-H group): 25.7 g and 30.4 g and 27.7 g and 27.6 g and 28.0 g
Body weight ([1]; day22, TPHP-L group): 29.5 g and 29.1 g and 27.8 g and 25.2 g and 26.1 g
Body weight ([1]; day24, TPHP-H group): 26.2 g and 30.9 g and 27.9 g and 28.0 g and 28.4 g
Body weight ([1]; day24, TPHP-L group): 29.9 g and 30.1 g and 28.1 g and 25.1 g and 26.4 g
Body weight ([1]; day26, TPHP-H group): 26.8 g and 31.6 g and 28.0 g and 27.8 g and 28.5 g
Body weight ([1]; day26, TPHP-L group): 30.2 g and 31.0 g and 28.7 g and 25.9 g and 26.7 g
Body weight ([1]; day28, TPHP-H group): 27.0 g and 31.6 g and 27.9 g and 28.1 g and 28.9 g
Body weight ([1]; day28, TPHP-L group): 30.1 g and 31.3 g and 28.7 g and 25.4 g and 26.8 g
Body weight ([1]; day30, TPHP-H group): 27.3 g and 32.3 g and 28.7 g and 28.3 g and 29.8 g
Body weight ([1]; day30, TPHP-L group): 29.9 g and 31.6 g and 29.4 g and 26.2 g and 27.1 g
PPARγ activity reported (in words) (PPARγ): agonists
activity at 1.95 µM ([2]; 1.95 μM compound + 50 μM CDCA, replicates, read-out: Relative antagonist activity (%)): 97.2%
activity at 3.9 µM ([2]; 3.90 μM compound + 50 μM CDCA, replicates, read-out: Relative antagonist activity (%)): 97.3%
activity at 31.25 µM ([2]; 31.25 μM compound + 50 μM CDCA, replicates, read-out: Relative antagonist activity (%)): 87.3%
Relative activity, antagonist mode ([2]; 50 μM compound in the presence of 50 μM CDCA, standardized against positive control DY268 (50 μM = 100%)): 42.69%
activity at 62.5 µM ([2]; 62.50 μM compound + 50 μM CDCA, replicates, read-out: Relative antagonist activity (%)): 76.5%
activity at 250 µM ([2]; 250.00 μM compound + 50 μM CDCA, standardized to DMSO and 50 μM CDCA, replicates, read-out: Relative antagonist activity (%)): 58.1%
IC50 ([2]; read-out: IC50, inhibition of CDCA-induced coactivator recruitment to FXR): 70.6 µM
activity at 0.98 µM [2, 3]: 99.2%
activity at 7.8 µM [2, 3]: 95.9%
activity at 125 µM [2, 3]: 64.3%
activity at […] [2, 3]: 90.6%
Hepatic TG concentrations vs control group (in words) (C57BL/6N mice; TPHP exposure groups): significantly higher
Hepatic TG (C57BL/6N mice; TPHP-H: 50 mg/kg daily oral gavage 35 d): 731.21 μmol/g prot and 811.79 μmol/g prot and 765.68 μmol/g prot
Hepatic TG (C57BL/6N mice; TPHP-L: 10 mg/kg daily oral gavage 35 d): 784.11 μmol/g prot and 752.79 μmol/g prot and 725.51 μmol/g prot
